Legend:
[1] = tested on: drug-induced gingival overgrowth (DIGO); assay: Mice study #2: preventive and active treatment of DIGO, gingival overgrowth; format: in vivo, C57BL/6 mice
Experimental: Using the C57BL/6, the DIGO were induced in 33 male mice for 14 days in an anaesthetized condition as described above. […] In the prevention group, folic acid (10 μg/ml) was included in the drinking water from the time of ligature placement until end of the study (14 days). […] In the combined prevention and treatment group, both modes of folic acid treatments had provided including PO and local gel application as described above. Mice study #2: Validation study for preventive and active treatment for DIGO. […] One set of these mice were used as a control disease group (FIG. 23A) while the other group was treated with folic acid (gel and in drinking water) (FIG. 23B). In the prevention and treatment group, folic acid (10 μg/ml) (Sigma-Aldrich, St. Louis MO) was included in the drinking water from the time of suture placement until end of the study (14 days). Additionally, gel applications were repeated daily until the end of the study (14 days). The four groups in this study were: • 1. Control group (n=2): no interventions were performed • 2. […] 2D planimetry with stereomicroscopy. […] 3D Digital Imaging and Volumetric Analysis. A 3Shape TRIOS® intraoral digital scanner was used to scan all of the dissected tissue and create a 3D STL (STereoLithography) file from each scan. Autodesk […]® (Autodesk 23 Inc., CA, USA) was used to overlay each individual scan on top of one another, keeping each of the distinct mice studies separately. Anatomical landmarks of the mandibular incisors, interdental papilla, and molars were used to make sure scans were accurately overlaid. Autodesk […]® was then used to selectively remove the mandibular incisors from each digital scan. The scans were all saved and imported into Autodesk Netfabb® (Autodesk Inc., CA, USA) where plane cuts were used to simultaneously crop all scans to include only the essential parts of the gingival tissue that would indicate an increase or decrease in growth. The cropped scans were saved and imported into open source software platform 3DSlicer 4.8, where they were volumetrically analyzed using the “Volumes” module. The quantified volume values were statistically analyzed in GraphPad Prism® 7 (GraphPad Software Inc., CA, USA).

Myd88 = assay: Mice study #2: Myd88 immunoblotting of gingival samples; format: in vivo, C57BL/6 mice; details: three mice per group
Experimental: Western blot analysis. Cells were seeded in 60 mm plates with a density of 5×10^5 cells per plate and washed briefly with Dulbecco's phosphate-buffered saline (Gibco, Waltham, MA, USA). Whole cell lysates were prepared using RIPA lysis buffer containing protease inhibitor cocktail (Sigma-Aldrich). Total protein concentration was determined using the BCA reagent (Pierce, Waltham, MA, USA). 20 μg of total protein were resolved on sodium dodecyl sulfate-polyacrylamide gel electrophoresis and transferred to polyvinylidenedifluoride membrane and immunoblotted. The blots were incubated for 1 h in 1% bovine serum albumin (BSA) (Sigma-Aldrich) to block the non-specific bindings followed by over-night incubation in primary antibodies (MyD88 and pP65 from Cell Signaling Technology, and human LITAF ThermoFisher Sigma) at 4° C. on shaker. Next day, blots were washed for three times (10 min each) in Tris-buffered saline containing 1% Tween20 (TBST) followed by incubation with secondary antibody (Goat anti-rabbit IgG HRP) with 1:10,000 dilution for 1 h. […] The band intensities were quantified using software ImageJ (NIH, USA) and relative protein levels were normalized by β-actin (Cell Signaling). […] The band intensities were measured by the software ImageJ (NIH, USA), and relative protein levels were normalized by β-actin.

Nc1nc2ncc(CNc3ccc(C(=O)N[C@@H](CCC(=O)O)C(=O)O)cc3)nc2c(=O)[nH]1 [folic acid]
gingival overgrowth, 2D planimetry with stereomicroscopy ([1]; active treatment after 1 week of disease): even further reduce these gingival overgrowths | gingival overgrowth, clinical images ([1]; active treatment: DIGO 1 week, sutures removed and cyclosporine stopped, then folic acid p.o. & local): effectively reduce gingival overgrowths | mean gingival volume, 3D morphometric analysis ([1]; folic acid group, day 14, n=5, disease group 23.17±1.134 mm^3, p<0.005): ~16.19±0.9224 mm^3 | gingival overgrowth, 2D planimetry with stereomicroscopy ([1]; preventive treatment): all mice appear to respond | gingival overgrowth, clinical images ([1]; preventive treatment, folic acid p.o. & local, 14 days): prominently reduced gingival overgrowth | overlaid 3D volumes, control vs folic acid treated ([1]; representative samples, day 14, some increase on lingual surfaces): little difference | Myd88 expression, disease group relative to control and folic acid treatment group (Myd88): higher Myd88 expressions compared to the control and treatment group

Reference: patent US20260000496A1, “MATERIALS AND METHODS FOR DRUG-INDUCED GINGIVAL OVERGROWTH” (Optimed Technology, Inc., priority 2019, published 2026)
